Measurements from ChEMBL document CHEMBL1201862, “PubChem BioAssay data set” (2004).
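Method: 48-hour compound exposure of cells in 96-well plates, five concentrations, linear interpolation of endpoints. The concentration for 50% growth inhibition is given as GI50.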 Calls of active or inactive are those of the source. No stated cut-off is given here; in the data, active = GI50 up to about 1.1 µM and inactive = higher.

Assays:
Experiment in all cases: NCI tumour cell line growth inhibition, 48 h
[1] = system: A498
[2] = system: A549
[3] = system: ACHN
[4] = system: CAKI-1
[5] = system: CCRF-CEM
[6] = system: COLO 205
[7] = system: DU-145
[8] = system: EKVX
[9] = system: HCT-116
[10] = system: HCT-15
[11] = system: HL-60
[12] = system: HOP-62
[13] = system: HOP-92
[14] = system: HT-29
[15] = system: Hs-578T
[16] = system: IGROV-1
[17] = system: K562
[18] = system: KM12
[19] = system: LOX IMVI
[20] = system: M14
[21] = system: MCF7
[22] = system: MDA-MB-231
[23] = system: MDA-MB-435
[24] = system: MDA-N
[25] = system: MOLT-4
[26] = system: Malme-3M
[27] = system: NCI-H226
[28] = system: NCI-H23
[29] = system: NCI-H460
[30] = system: NCI/ADR-RES
[31] = system: OVCAR-3
[32] = system: OVCAR-4
[33] = system: OVCAR-5
[34] = system: OVCAR-8
[35] = system: PC-3
[36] = system: RPMI-8226
[37] = system: RXF 393
[38] = system: SF-268
[39] = system: SF-295
[40] = system: SF-539
[41] = system: SK-MEL-28
[42] = system: SK-MEL-2
[43] = system: SK-MEL-5
[44] = system: SK-OV-3
[45] = system: SN12C
[46] = system: SNB-19
[47] = system: SR
[48] = system: SW-620
[49] = system: TK-10
[50] = system: U-251
[51] = system: UACC-257
[52] = system: UACC-62
[53] = system: UO-31
[54] = system: 786-0
[55] = system: NCI-H522
[56] = system: SNB-75
[57] = system: T47D

Compound: O=C1OC(c2ccc(O)c(F)c2)(c2ccc(O)c(F)c2)c2cccc3cccc1c23
- GI50 [1]: > 25 µM (inactive)
- GI50 [2]: > 25 µM (inactive)
- GI50 [3]: > 25 µM (inactive)
- GI50 [4]: 2.79 µM (inactive)
- GI50 [5]: > 25 µM (inactive)
- GI50 [6]: 1.26 µM (inactive)
- GI50 [7]: > 25 µM (inactive)
- GI50 [8]: 5.12 µM (inactive)
- GI50 [9]: > 25 µM (inactive)
- GI50 [10]: > 25 µM
- GI50 [11]: 5.57 µM (inactive)
- GI50 [12]: > 25 µM (inactive)
- GI50 [13]: > 25 µM (inactive)
- GI50 [14]: > 25 µM (inactive)
- GI50 [15]: 2.03 µM (inactive)
- GI50 [16]: > 25 µM (inactive)
- GI50 [17]: 14.8 µM (inactive)
- GI50 [18]: > 25 µM (inactive)
- GI50 [19]: > 25 µM (inactive)
- GI50 [20]: > 25 µM (inactive)
- GI50 [21]: 1.79 µM (inactive)
- GI50 [22]: > 25 µM (inactive)
- GI50 [23]: > 25 µM (inactive)
- GI50 [24]: 15.6 µM (inactive)
- GI50 [25]: 5.35 µM (inactive)
- GI50 [26]: > 25 µM (inactive)
- GI50 [27]: > 25 µM (inactive)
- GI50 [28]: > 25 µM (inactive)
- GI50 [29]: > 25 µM (inactive)
- GI50 [30]: 24.7 µM (inactive)
- GI50 [31]: 5.9 µM (inactive)
- GI50 [32]: 0.0601 µM (active)
- GI50 [33]: > 25 µM (inactive)
- GI50 [34]: > 25 µM (inactive)
- GI50 [35]: 3.09 µM (inactive)
- GI50 [36]: 17.2 µM (inactive)
- GI50 [37]: > 25 µM (inactive)
- GI50 [38]: > 25 µM (inactive)
- GI50 [39]: 23.2 µM (inactive)
- GI50 [40]: > 25 µM (inactive)
- GI50 [41]: 0.0643 µM (active)
- GI50 [42]: > 25 µM (inactive)
- GI50 [43]: > 25 µM (inactive)
- GI50 [44]: > 25 µM (inactive)
- GI50 [45]: 1.34 µM (inactive)
- GI50 [46]: > 25 µM (inactive)
- GI50 [47]: 8.04 µM (inactive)
- GI50 [48]: > 25 µM (inactive)
- GI50 [49]: > 25 µM (inactive)
- GI50 [50]: > 25 µM (inactive)
- GI50 [51]: > 25 µM (inactive)
- GI50 [52]: 17.5 µM (inactive)
- GI50 [53]: > 25 µM (inactive)

Compound: NCCSC1(O)C(=O)c2ccccc2-c2ccccc21 (stereo unspecified)
- GI50 [54]: 1.63 µM (inactive)
- GI50 [2]: 0.719 µM (active)
- GI50 [3]: 1.05 µM (active)
- GI50 [5]: 0.158 µM (active)
- GI50 [6]: 1.85 µM (inactive)
- GI50 [7]: 1.06 µM (active)
- GI50 [8]: 1.66 µM (inactive)
- GI50 [9]: 0.176 µM (active)
- GI50 [10]: 1.49 µM
- GI50 [11]: 1.09 µM (active)
- GI50 [12]: 1.53 µM (inactive)
- GI50 [14]: 1.21 µM (inactive)
- GI50 [15]: 1.41 µM (inactive)
- GI50 [16]: 1.8 µM (inactive)
- GI50 [17]: 0.382 µM (active)
- GI50 [18]: 1.63 µM (inactive)
- GI50 [19]: 0.256 µM (active)
- GI50 [20]: 1.02 µM (active)
- GI50 [21]: 1.83 µM (inactive)
- GI50 [22]: 0.483 µM (active)
- GI50 [23]: < 0.01 µM (active)
- GI50 [25]: 0.181 µM (active)
- GI50 [26]: 1 µM (active)
- GI50 [27]: 1.33 µM (inactive)
- GI50 [28]: 0.143 µM (active)
- GI50 [29]: 1.78 µM (inactive)
- GI50 [55]: 1.55 µM (inactive)
- GI50 [30]: 0.272 µM (active)
- GI50 [31]: < 0.01 µM (active)
- GI50 [32]: 0.207 µM (active)
- GI50 [33]: 1.53 µM (inactive)
- GI50 [34]: 0.262 µM (active)
- GI50 [35]: 1.25 µM (inactive)
- GI50 [36]: 0.0348 µM (active)
- GI50 [37]: 1.64 µM (inactive)
- GI50 [38]: 1.5 µM (inactive)
- GI50 [39]: < 0.01 µM (active)
- GI50 [40]: 1.15 µM (inactive)
- GI50 [41]: 1.21 µM (inactive)
- GI50 [42]: 1.61 µM (inactive)
- GI50 [43]: 0.265 µM (active)
- GI50 [44]: 1.63 µM (inactive)
- GI50 [45]: 1.36 µM (inactive)
- GI50 [46]: 1.53 µM (inactive)
- GI50 [56]: 0.553 µM (active)
- GI50 [47]: 0.0472 µM (active)
- GI50 [48]: 1.52 µM (inactive)
- GI50 [57]: 2.1 µM (inactive)
- GI50 [49]: 1.73 µM (inactive)
- GI50 [50]: 0.713 µM (active)
- GI50 [51]: 0.435 µM (active)
- GI50 [52]: 1.64 µM (inactive)
- GI50 [53]: 1.47 µM (inactive)
